Experimental data as given in PubChem BioAssay AID248 (DTP/NCI, 2004).
“And” between values parts separate entries of the source, which are not always exact repeats. Equal values may be shown once. Inconclusive results and toxic doses are left out. Rule as the data show it: active = T/C of 150% or more; inactive = T/C below 125%.

Test system: L1210 leukemia ip in BDF1 mice, survival T/C
Assay: NCI In Vivo Anticancer Drug Screen. Data for tumor model L1210 Leukemia (intraperitoneal) in B6D2F1 (BDF1) mice
Details: endpoint: mean survival time, higher = longer survival
How it was run: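 Ratio derived from survival: compound-dosed mice over vehicle-dosed mice, all bearing a transplantable tumor.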

[1] = dose: 20.0 mg/kg/injection, schedule: Q01DX001 (ip), vehicle: saline
[2] = dose: 25.0 mg/kg/injection, schedule: Q01DX009 (ip), vehicle: saline
[3] = dose: 25.0 mg/kg/injection, schedule: Q04DX003 (ip), vehicle: saline
[4] = dose: 40.0 mg/kg/injection, schedule: Q01DX001 (ip), vehicle: saline
[5] = dose: 50.0 mg/kg/injection, schedule: Q04DX003 (ip), vehicle: saline
[6] = dose: 100.0 mg/kg/injection, schedule: Q01DX001 (ip), vehicle: saline
[7] = dose: 200.0 mg/kg/injection, schedule: Q01DX001 (ip), vehicle: saline
[8] = dose: 400.0 mg/kg/injection, schedule: Q01DX001 (ip), vehicle: saline
[9] = dose: 100.0 mg/kg/injection, schedule: Q04DX003 (ip), vehicle: saline with Tween-80
[10] = dose: 200.0 mg/kg/injection, schedule: Q04DX003 (ip), vehicle: saline with Tween-80
[11] = dose: 100.0 mg/kg/injection, schedule: Q04DX003 (ip), vehicle: saline

Measured: T/C

COC(=O)C1=COC(C)C(C=O)C1CC(=O)O (configuration not stated)
inactive: dose: 12.5 mg/kg/injection, schedule: Q01DX009 (ip), vehicle: saline 108 % of control | [1] 103 % of control | [2] 103 % of control | [3] 110 % of control | [4] 118 % of control | [5] 111 % of control | dose: 80.0 mg/kg/injection, schedule: Q01DX001 (ip), vehicle: saline 118 % of control

O=c1nc2c(ncn2C2OC(CO)C(O)C2O)c(NCCc2ccccc2)[nH]1 (configuration not stated)
inactive: dose: 50.0 mg/kg/injection, schedule: Q01DX005 (ip), vehicle: water 100 % of control | dose: 100.0 mg/kg/injection, schedule: Q01DX005 (ip), vehicle: water 94 % of control | dose: 200.0 mg/kg/injection, schedule: Q01DX005 (ip), vehicle: water 105 % of control | dose: 400.0 mg/kg/injection, schedule: Q01DX005 (ip), vehicle: water 113 % of control

CC(=O)CCC1CC(=O)OC1(C)C (configuration not stated)
inactive: [6] 102 % of control and 100 % of control | dose: 100.0 mg/kg/injection, schedule: Q01DX009 (ip), vehicle: saline 104 % of control and 88 % of control | dose: 100.0 mg/kg/injection, schedule: Q04DX003 (ip), vehicle: acetone 93 % of control | [7] 102 % of control and 100 % of control | dose: 200.0 mg/kg/injection, schedule: Q01DX009 (ip), vehicle: saline 96 % of control and 88 % of control | dose: 200.0 mg/kg/injection, schedule: Q04DX003 (ip), vehicle: acetone 117 % of control | [8] 96 % of control and 106 % of control | dose: 400.0 mg/kg/injection, schedule: Q01DX009 (ip), vehicle: saline 98 % of control and 86 % of control | dose: 400.0 mg/kg/injection, schedule: Q04DX003 (ip), vehicle: acetone 101 % of control

CCCc1cc2c3c(c(=O)oc2cc1OC)CCCC3
inactive: [9] 93 % of control | [10] 104 % of control | dose: 400.0 mg/kg/injection, schedule: Q04DX003 (ip), vehicle: saline with Tween-80 93 % of control

O=C(COc1ccc(Cl)c(Cl)c1)NCc1ccc[n+](Cc2ccc(Cl)c(S(=O)(=O)F)c2)c1
inactive: [3] 114 % of control | [5] 118 % of control | [11] 100 % of control and 112 % of control

COc1ccnc2ccc(C)c([N+](=O)[O-])c12
inactive: dose: 100.0 mg/kg/injection, schedule: Q04DX003 (ip), vehicle: other 96 % of control | dose: 200.0 mg/kg/injection, schedule: Q04DX003 (ip), vehicle: other 90 % of control

CCCCOC(=O)c1ccc(O)c(OC)c1
inactive: [6] 100 % of control | [7] 105 % of control | [8] 102 % of control

CN(C)C(=O)Oc1c(Cl)c(Cl)c(OC(=O)N(C)C)c(Cl)c1Cl
inactive: dose: 100.0 mg/kg/injection, schedule: Q04DX002 (ip), vehicle: Klucel (hydroxypropylcellulose) (HPC) 94 % of control | dose: 200.0 mg/kg/injection, schedule: Q04DX002 (ip), vehicle: Klucel (hydroxypropylcellulose) (HPC) 105 % of control | dose: 400.0 mg/kg/injection, schedule: Q04DX002 (ip), vehicle: Klucel (hydroxypropylcellulose) (HPC) 90 % of control

CCN1CCC(CN2c3ccccc3Sc3ccccc32)C1 (configuration not stated)
inactive: [2] 105 % of control | [3] 94 % of control | dose: 50.0 mg/kg/injection, schedule: Q01DX009 (ip), vehicle: saline 110 % of control | [5] 102 % of control | [6] 98 % of control | [11] 112 % of control

CC[N+]1(C2CCCCC2)CCCCC1
inactive: dose: 5.0 mg/kg/injection, schedule: Q01DX001 (ip), vehicle: saline 101 % of control | dose: 10.0 mg/kg/injection, schedule: Q01DX001 (ip), vehicle: saline 103 % of control | [1] 100 % of control | [4] 91 % of control | dose: 75.0 mg/kg/injection, schedule: Q01DX001 (ip), vehicle: saline 96 % of control

O=c1cc(CSCC(O)CO)[nH]c(=O)[nH]1 (configuration not stated)
inactive: [11] 98 % of control | dose: 200.0 mg/kg/injection, schedule: Q04DX003 (ip), vehicle: saline 98 % of control | dose: 400.0 mg/kg/injection, schedule: Q04DX003 (ip), vehicle: saline 96 % of control

CC(C)(C)c1cc(C=O)cc(C(C)(C)C)c1O
inactive: dose: 100.0 mg/kg/injection, schedule: Q04DX002 (ip), vehicle: saline with Tween-80 95 % of control | dose: 200.0 mg/kg/injection, schedule: Q04DX002 (ip), vehicle: saline with Tween-80 95 % of control | dose: 400.0 mg/kg/injection, schedule: Q04DX002 (ip), vehicle: saline with Tween-80 91 % of control

Cc1cc(C)c2ccc(NC(=O)CCC(=O)O)nc2n1
inactive: [6] 95 % of control

O=C(OCC(OC(=O)c1ccccc1)C(OC(=O)c1ccccc1)C(OC(=O)c1ccccc1)C(SCc1ccccc1)SCc1ccccc1)c1ccccc1 (configuration not stated)
inactive: dose: 100.0 mg/kg/injection, schedule: Q01DX001 (ip), vehicle: carboxymethylcellulose (CMC) 101 % of control | dose: 200.0 mg/kg/injection, schedule: Q01DX001 (ip), vehicle: carboxymethylcellulose (CMC) 97 % of control | dose: 400.0 mg/kg/injection, schedule: Q01DX001 (ip), vehicle: carboxymethylcellulose (CMC) 95 % of control

CCCCN1C(=O)C/C(=C2\CC(=O)N(CCCC)C2=O)C1=O
inactive: dose: 100.0 mg/kg/injection, schedule: Q01DX009 (ip), vehicle: Klucel (hydroxypropylcellulose) (HPC) 91 % of control | dose: 100.0 mg/kg/injection, schedule: Q04DX003 (ip), vehicle: Klucel (hydroxypropylcellulose) (HPC) 87 % of control | dose: 200.0 mg/kg/injection, schedule: Q01DX009 (ip), vehicle: Klucel (hydroxypropylcellulose) (HPC) 94 % of control | dose: 200.0 mg/kg/injection, schedule: Q04DX003 (ip), vehicle: Klucel (hydroxypropylcellulose) (HPC) 101 % of control | dose: 400.0 mg/kg/injection, schedule: Q01DX009 (ip), vehicle: Klucel (hydroxypropylcellulose) (HPC) 91 % of control | dose: 400.0 mg/kg/injection, schedule: Q04DX003 (ip), vehicle: Klucel (hydroxypropylcellulose) (HPC) 94 % of control

Nc1nc2ncc(CNc3ccc(C(=O)NC(CCC(=O)O)C(=O)O)nc3)nc2c(=O)[nH]1 (configuration not stated)
inactive: dose: 0.75 mg/kg/injection, schedule: Q01DX009 (ip), vehicle: alkali diluted with saline 105 % of control | dose: 1.5 mg/kg/injection, schedule: Q01DX009 (ip), vehicle: alkali diluted with saline 102 % of control | dose: 3.0 mg/kg/injection, schedule: Q01DX009 (ip), vehicle: alkali diluted with saline 111 % of control | dose: 6.0 mg/kg/injection, schedule: Q01DX009 (ip), vehicle: alkali diluted with saline 102 % of control | dose: 12.0 mg/kg/injection, schedule: Q01DX009 (ip), vehicle: alkali diluted with saline 100 % of control | dose: 18.0 mg/kg/injection, schedule: Q01DX009 (ip), vehicle: alkali diluted with saline 112 % of control | dose: 24.0 mg/kg/injection, schedule: Q01DX009 (ip), vehicle: alkali diluted with saline 108 % of control | dose: 36.0 mg/kg/injection, schedule: Q01DX009 (ip), vehicle: alkali diluted with saline 108 % of control | dose: 48.0 mg/kg/injection, schedule: Q01DX009 (ip), vehicle: alkali diluted with saline 118 % of control | dose: 75.0 mg/kg/injection, schedule: Q01DX001 (ip), vehicle: alkali diluted with saline 111 % of control | dose: 150.0 mg/kg/injection, schedule: Q01DX001 (ip), vehicle: alkali diluted with saline 105 % of control

COC1(OC)C2CCC1(Cl)C(Cl)=C2Cl (configuration not stated)
inactive: dose: 100.0 mg/kg/injection, schedule: Q01DX009 (ip), vehicle: saline with Tween-80 95 % of control | [9] 93 % of control | dose: 200.0 mg/kg/injection, schedule: Q01DX009 (ip), vehicle: saline with Tween-80 92 % of control | [10] 91 % of control | dose: 400.0 mg/kg/injection, schedule: Q01DX009 (ip), vehicle: saline with Tween-80 89 % of control
